Measurements as given in article PMC11243149, “Assessing the Effects of Thiazole-Carboxamide Derivatives on the Biophysical Properties of AMPA Receptor Complexes as a Potential Neuroprotective Agent” (Molecules, 2024).
Read-outs that look alike come from different tables or passages of the source.

Tests used:
Assay type in all cases: cell-based
GluA2 = target: T1, GluA2 (Homo sapiens, UniProt P42262); experiment: Whole-cell patch-clamp recordings of homomeric GluA2 AMPAR in transfected HEK293T cells; conditions: for Amplitude (glutamate plus TC compound): 10 mM glutamate + TC compound (12 µM optimal concentration), HEK293T, -60 mV, pH 7.4, 22 °C, mean ± SEM; for Amplitude (glutamate plus TC compound) / Amplitude, applying glutamate alone after TC compound: n = 10; for Amplitude, applying glutamate alone after TC compound: 10 mM glutamate alone after 20 s wash following the TC compound; for t deact: weighted tau of deactivation, 10 mM glutamate for 1 ms, glutamate alone 2.3±0.1; for t deact / t des: with TC compound; for t des: weighted tau of desensitization, 10 mM glutamate 500 ms, glutamate alone 2.6±0.1
T1 construct: expressed in transfected cells; host or cells: HEK293T
Protocol: (§1) The effect of five TC compounds on whole-cell currents of four AMPAR subunits (GluA1, GluA1/2, GluA2, and GluA2/3) was investigated using transfected HEK293T cells. Each compound was applied separately to each subunit, with experiments conducted on 8–10 cells per condition to ensure reproducibility. […] At a glutamate concentration of 10 mM and a 500 ms protocol, approximately 95% of AMPAR channels were open. The A/AI ratio was calculated to compare the results, where A represents normalized current readings and AI indicates the inhibited current following TC compound exposure. […] Following closely, TC-1 inhibited the tested subunits by 5-fold.
(§2) The IC50 values were examined using GraphPad Prism software 9.5.0.730 (x64) (Table S6), which confirmed these findings. The IC50 values of TC substances were calculated by standardizing the peak current amplitudes using data obtained from 8–10 cells. Following a 500 ms exposure to the compounds, the cells were rinsed with glutamate for 20 s. Next, a solution containing just glutamate at a concentration of 10 mM was administered, and the resulting immediate induced electrical current was measured and documented (Figure 3).
(§3) In addition, an evaluation was conducted on the deactivation rates (τw deact) of all the examined chemicals to investigate their impact on the kinetics of deactivation. The chemicals were assessed for their effect on the deactivation kinetics of AMPAR subunits by briefly administering 10 mM glutamate for 1 ms to begin currents. This experimental setup allowed for the observation of τw deact under controlled conditions. […] TC-5 induced an approximately 2-fold increase in τw deact across all four tested subunits. […] These findings highlight the differential impact of TC compounds on deactivation kinetics across AMPAR subunits, shedding light on their potential neuroprotective mechanisms.
(§4) The flip isoform was uniformly employed across all AMPAR subunits in this study. These subunits were subcloned into the pRK vector and expressed in Human Embryonic kidney cells sourced (Sigma, München, Germany). HEK293T cells were grown in Dulbecco Modified Eagle Medium (DMEM) (Sigma, München, Germany) containing 10% FBS (fetal bovine serum), 0.1 mg/mL streptomycin, and 1 mM sodium pyruvate (Biological Industries; Beit-Haemek, Israel). HEK293T cells were incubated at 37 °C and 5% CO2 was supplemented to the medium. It was subcultured twice a week until cells reached pass #20. The transfection reagent used was either jetPRIME (Polyplus: New York, NY, USA) or Lipofectamine 2000 (Invitrogen; San Diego, CA, USA). Cells were kept for 36 h. after transfection in 12-well plates. Then, they were replated on coverslips coated with Laminin (1 mg/mL; Sigma, Germany) for electrophysiology recordings. Cells were then seeded in Petri dishes in DMEM supplemented with 10% fetal calf serum and antibiotics and maintained in a humidified incubator at 37 °C and 5% CO2. Highly fluorescent cells were identified and selected for recording post-transfection.
(§5) HEK293T cells were recorded for 36–48 h, at a temperature of 22 °C, with a membrane potential of −60 mV. HEK293T cells were recorded 36–48 h after transfection using IPA (Integrated Patch Amplifier) via the […], at a temperature of 22 °C, with a membrane potential of −60 mV. SutterPatch Software v. 1.1.1 (Sutter Instruments, Novato, CA, USA) was used to digitize membrane currents for a short period. The sampling frequency was set to 10 kHz, and the low-pass filter was set to 2 kHz. Borosilicate glass was used to fabricate the patch electrodes with a resistance of 2–4 MΩ. The extracellular solution contained the following (values are in mM): 150 NaCl, 2.8 KCl, 0.5 MgCl2, 2 CaCl2, and 10 HEPES, adjusted to pH 7.4 with NaOH. The pipette solution contained the following (values are in mM): 110 CsF, 30 CsCl, 4 NaCl, 0.5 CaCl2, 10 […], and 10 HEPES, adjusted to pH 7.2 with CsOH. […]

GluA1 = target: T2, GluA1 (Homo sapiens, UniProt P42261); experiment: Whole-cell patch-clamp recordings of homomeric GluA1 AMPAR in transfected HEK293T cells; conditions: GluA1; for Amplitude (glutamate plus TC compound): 10 mM glutamate + TC compound (12 µM optimal concentration), HEK293T, -60 mV, pH 7.4, 22 °C, mean ± SEM; for t deact: weighted tau of deactivation, 10 mM glutamate for 1 ms, glutamate alone 2.1±0.1; for t deact / t des: with TC compound; for t des: weighted tau of desensitization, 10 mM glutamate 500 ms, glutamate alone 2.5±0.1
T2 construct: expressed in transfected cells; host or cells: HEK293T
Protocol: as §1, §2, §3, §4, §5

[1] = test system: AMPAR subunits (GluA1, GluA1/2, GluA2, and GluA2/3); experiment: Whole-cell patch-clamp recordings, statements over all tested AMPAR subunits; conditions: for reduction in τw des: across all examined subunits; for increase in τw deact / decrease in AMPAR subunit activity (inhibition of the whole-cell current): all tested subunits; for increase in τw deact: 10 mM glutamate for 1 ms; for decrease in AMPAR subunit activity (inhibition of the whole-cell current): 10 mM glutamate, 500 ms protocol
Protocol: as §1
A thorough investigation was performed to assess the neuroprotective potential of the TC compounds. The influence of the five TC compounds on the desensitization traces is seen in Figure 4, namely in panels b, d, f, and h. TC-2 caused a substantial reduction in τw des in all receptor subunits, with decreases ranging from 2 to 3 times.
as §3, §4
as §5, with “CsOH. Using double barrel glass (theta tube), glutamate and the solutions of choice were rapidly administered, and the theta tube was mounted on a high-speed piezo solution switcher (Automate Scientific, Berkeley, CA, USA).” for “CsOH.”

GluA1/2 = target: T3, GluA1/2 (Homo sapiens, UniProt P42261+P42262); experiment: Whole-cell patch-clamp recordings of heteromeric GluA1/2 AMPAR in transfected HEK293T cells; conditions: for Amplitude (glutamate plus TC compound): 10 mM glutamate + TC compound (12 µM optimal concentration), HEK293T, -60 mV, pH 7.4, 22 °C, mean ± SEM; for Amplitude (glutamate plus TC compound) / Amplitude, applying glutamate alone after TC compound: n = 10; for Amplitude, applying glutamate alone after TC compound: 10 mM glutamate alone after 20 s wash following the TC compound; for A/AI: ratio of current with glutamate alone (A) to inhibited current after TC compound (AI); for t deact: weighted tau of deactivation, 10 mM glutamate for 1 ms, glutamate alone 2.5±0.3; for t deact / t des: with TC compound; for t des: weighted tau of desensitization, 10 mM glutamate 500 ms, glutamate alone 5.2±0.5
T3 construct: expressed in transfected cells; host or cells: HEK293T
Protocol: as §1, §2, §3, §4, §5

GluA2/3 = target: T4, GluA2/3 (Homo sapiens, UniProt P42262+P42263); experiment: Whole-cell patch-clamp recordings of heteromeric GluA2/3 AMPAR in transfected HEK293T cells; conditions: for Amplitude (glutamate plus TC compound): 10 mM glutamate + TC compound (12 µM optimal concentration), HEK293T, -60 mV, pH 7.4, 22 °C, mean ± SEM; for Amplitude (glutamate plus TC compound) / Amplitude, applying glutamate alone after TC compound: n = 10; for Amplitude, applying glutamate alone after TC compound: 10 mM glutamate alone after 20 s wash following the TC compound; for A/AI: ratio of current with glutamate alone (A) to inhibited current after TC compound (AI); for t deact: weighted tau of deactivation, 10 mM glutamate for 1 ms, glutamate alone 2.6±0.3; for t deact / t des: with TC compound; for t des: weighted tau of desensitization, 10 mM glutamate 500 ms, glutamate alone 2.7±0.2
T4 construct: expressed in transfected cells; host or cells: HEK293T
Protocol: as §1, §2, §3, §4, §5

[2] = Table S6, read-out: Log IC50 (converted)
[3] = ratio of current with glutamate alone (A) to inhibited current after TC compound (AI)
[4] = Table S6, peak current amplitudes, 8-10 cells, GraphPad Prism fit, read-out: IC50

T3 sequence (P42261 19-906 isoform P42261-2 limits assumed): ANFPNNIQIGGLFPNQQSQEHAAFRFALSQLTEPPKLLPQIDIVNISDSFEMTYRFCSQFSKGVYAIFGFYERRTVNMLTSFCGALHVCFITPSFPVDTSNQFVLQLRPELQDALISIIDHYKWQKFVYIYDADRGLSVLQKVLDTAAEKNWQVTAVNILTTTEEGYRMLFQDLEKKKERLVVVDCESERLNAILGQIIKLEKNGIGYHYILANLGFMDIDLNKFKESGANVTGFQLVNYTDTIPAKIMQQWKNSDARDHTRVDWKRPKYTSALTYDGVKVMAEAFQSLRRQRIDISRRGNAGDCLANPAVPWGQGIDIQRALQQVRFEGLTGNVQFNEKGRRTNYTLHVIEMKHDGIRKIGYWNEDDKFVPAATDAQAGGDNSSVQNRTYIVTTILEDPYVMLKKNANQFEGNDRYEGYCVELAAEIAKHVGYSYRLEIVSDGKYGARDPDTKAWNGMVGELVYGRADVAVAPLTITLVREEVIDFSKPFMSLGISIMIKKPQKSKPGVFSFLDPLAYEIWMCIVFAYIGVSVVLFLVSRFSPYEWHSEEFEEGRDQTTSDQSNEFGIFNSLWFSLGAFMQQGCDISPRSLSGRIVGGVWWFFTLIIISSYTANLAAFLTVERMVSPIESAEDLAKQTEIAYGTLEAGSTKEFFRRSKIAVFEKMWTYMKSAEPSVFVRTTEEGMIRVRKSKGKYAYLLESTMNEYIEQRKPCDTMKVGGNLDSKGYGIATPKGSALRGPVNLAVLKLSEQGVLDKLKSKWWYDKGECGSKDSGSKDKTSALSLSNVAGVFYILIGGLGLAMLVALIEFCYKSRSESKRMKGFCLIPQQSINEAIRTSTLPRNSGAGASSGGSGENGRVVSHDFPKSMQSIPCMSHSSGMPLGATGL
T3 sequence (P42262 25-883 isoform P42262-2 limits assumed): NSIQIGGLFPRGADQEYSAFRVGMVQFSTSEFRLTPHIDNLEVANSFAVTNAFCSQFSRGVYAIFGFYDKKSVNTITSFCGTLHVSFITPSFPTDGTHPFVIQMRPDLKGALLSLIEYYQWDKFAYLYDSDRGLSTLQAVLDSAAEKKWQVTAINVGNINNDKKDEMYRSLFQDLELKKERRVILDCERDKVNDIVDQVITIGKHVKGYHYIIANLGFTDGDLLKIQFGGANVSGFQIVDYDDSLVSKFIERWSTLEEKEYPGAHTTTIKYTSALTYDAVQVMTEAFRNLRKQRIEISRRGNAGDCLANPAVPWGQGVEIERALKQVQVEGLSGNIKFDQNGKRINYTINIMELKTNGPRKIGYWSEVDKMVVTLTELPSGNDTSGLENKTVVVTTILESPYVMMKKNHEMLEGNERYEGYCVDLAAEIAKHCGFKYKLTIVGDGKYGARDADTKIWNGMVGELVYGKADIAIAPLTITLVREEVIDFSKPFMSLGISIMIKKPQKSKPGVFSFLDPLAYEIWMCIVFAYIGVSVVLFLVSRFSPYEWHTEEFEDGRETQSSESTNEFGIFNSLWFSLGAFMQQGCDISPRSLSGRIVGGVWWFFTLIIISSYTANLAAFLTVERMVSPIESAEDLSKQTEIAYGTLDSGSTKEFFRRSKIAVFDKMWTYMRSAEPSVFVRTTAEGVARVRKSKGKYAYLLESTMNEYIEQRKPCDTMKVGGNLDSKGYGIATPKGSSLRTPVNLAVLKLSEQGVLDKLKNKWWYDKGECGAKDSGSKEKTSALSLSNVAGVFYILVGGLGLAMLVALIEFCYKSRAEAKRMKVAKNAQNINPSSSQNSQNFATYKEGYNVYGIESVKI
T2 sequence (P42261 19-906 isoform P42261-2 limits assumed, species assumed): as the sequence (P42261 19-906 isoform P42261-2 limits assumed) above
T1 sequence (P42262 25-883 isoform P42262-2 limits assumed, species assumed): as the sequence (P42262 25-883 isoform P42262-2 limits assumed) above
T4 sequence (P42262 25-883 isoform P42262-2 limits assumed): as above
T4 sequence (P42263 29-894 isoform P42263-2 limits assumed): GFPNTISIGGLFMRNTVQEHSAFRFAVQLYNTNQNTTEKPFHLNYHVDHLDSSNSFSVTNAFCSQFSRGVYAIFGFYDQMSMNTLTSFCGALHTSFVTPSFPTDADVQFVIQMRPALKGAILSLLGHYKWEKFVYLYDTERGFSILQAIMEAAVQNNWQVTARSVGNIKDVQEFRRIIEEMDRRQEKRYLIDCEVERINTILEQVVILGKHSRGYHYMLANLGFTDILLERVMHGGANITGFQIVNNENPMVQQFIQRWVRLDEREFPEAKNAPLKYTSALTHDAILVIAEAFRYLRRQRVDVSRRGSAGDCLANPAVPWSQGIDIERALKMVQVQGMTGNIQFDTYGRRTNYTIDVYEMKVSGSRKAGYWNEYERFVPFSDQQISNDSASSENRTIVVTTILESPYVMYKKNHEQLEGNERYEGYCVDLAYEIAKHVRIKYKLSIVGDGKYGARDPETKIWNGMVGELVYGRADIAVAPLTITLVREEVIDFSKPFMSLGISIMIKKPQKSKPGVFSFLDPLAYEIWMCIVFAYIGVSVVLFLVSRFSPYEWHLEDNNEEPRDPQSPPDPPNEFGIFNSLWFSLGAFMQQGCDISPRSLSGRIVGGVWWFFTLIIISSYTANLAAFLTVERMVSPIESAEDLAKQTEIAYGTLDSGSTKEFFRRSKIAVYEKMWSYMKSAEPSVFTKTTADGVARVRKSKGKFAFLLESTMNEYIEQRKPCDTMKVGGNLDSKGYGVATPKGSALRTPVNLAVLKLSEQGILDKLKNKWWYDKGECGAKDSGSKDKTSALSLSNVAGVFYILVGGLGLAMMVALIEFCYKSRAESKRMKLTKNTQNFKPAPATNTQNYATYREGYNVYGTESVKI

COc1ccc(-c2nc(C(=O)Nc3cc(OC)c(OC)c(OC)c3)cs2)cc1 [TC-2]
Amplitude (glutamate plus TC compound) (GluA2): 212±20 pA
Amplitude, applying glutamate alone after TC compound (GluA2): 1131±105 pA
IC50 (GluA2; [2]): 3.02 µM
A/AI (GluA2; [3]): 5.49±0.05
IC50 (GluA2; read-out: IC50): 3.02 µM
t deact (GluA2): 6.3 ± 0.2 ms
t des (GluA2): 0.9 ± 0.1 ms
Amplitude (glutamate plus TC compound) (GluA1; n = 10): 172±18 pA
Amplitude, applying glutamate alone after TC compound (GluA1; 10 mM glutamate alone after 20 s wash following the TC compound, n = 10): 841±88 pA
IC50 (GluA1; [2]): 3.24 µM
IC50 (GluA1; read-out: IC50): 3.2 µM
t deact (GluA1): 5.6 ± 0.3 ms
t des (GluA1): 1.1 ± 0.1 ms
reduction in τw des [1]: 2 to 3 fold
increase in τw deact [1]: ~2.5 fold
decrease in AMPAR subunit activity (inhibition of the whole-cell current) [1]: ~5.5 fold
Amplitude (glutamate plus TC compound) (GluA1/2): 115±12 pA
Amplitude, applying glutamate alone after TC compound (GluA1/2): 597±66 pA
IC50 (GluA1/2; [2]): 3.09 µM
A/AI (GluA1/2): 5.38±0.08
IC50 (GluA1/2; read-out: IC50): 3.1 µM
t deact (GluA1/2): 6.0 ± 0.5 ms
t des (GluA1/2): 3.7 ± 0.3 ms
Amplitude (glutamate plus TC compound) (GluA2/3): 94±14 pA
Amplitude, applying glutamate alone after TC compound (GluA2/3): 484±68 pA
IC50 (GluA2/3; [2]): 3.02 µM
A/AI (GluA2/3): 5.33±0.23
IC50 (GluA2/3; read-out: IC50): 3.04 µM
t deact (GluA2/3): 5.9 ± 0.4 ms
t des (GluA2/3): 1.0 ± 0.2 ms

COc1ccc(-c2nc(C(=O)Nc3cc(OC)ccc3OC)cs2)cc1 [TC-5]
Amplitude (glutamate plus TC compound) (GluA2): 250±35 pA
Amplitude, applying glutamate alone after TC compound (GluA2): 1071±134 pA
IC50 (GluA2; [2]): 3.31 µM
IC50 (GluA2; read-out: IC50): 3.35 µM
t deact (GluA2): 5.8 ± 0.3 ms
t des (GluA2): 1.2 ± 0.1 ms
Amplitude (glutamate plus TC compound) (GluA1; n = 10): 177±33 pA
IC50 (GluA1; [4]): 3.51 µM
IC50 (GluA1; [2]): 3.55 µM
A/AI (GluA1; [3]): 4.67±0.10
t deact (GluA1): 5.5 ± 0.4 ms
t des (GluA1): 1.4 ± 0.1 ms
reduction in τw des [1]: roughly twofold
increase in τw deact [1]: around 2 fold
decrease in AMPAR subunit activity (inhibition of the whole-cell current) [1]: approximately 5 fold
Amplitude (glutamate plus TC compound) (GluA1/2): 123±20 pA
Amplitude, applying glutamate alone after TC compound (GluA1/2): 553±89 pA
IC50 (GluA1/2; [4]): 3.49 µM
IC50 (GluA1/2; [2]): 3.47 µM
A/AI (GluA1/2): 4.80±0.07
t deact (GluA1/2): 5.6 ± 0.4 ms
t des (GluA1/2): 3.8 ± 0.3 ms
Amplitude (glutamate plus TC compound) (GluA2/3): 99±22 pA
Amplitude, applying glutamate alone after TC compound (GluA2/3): 443±96 pA
IC50 (GluA2/3; [4]): 3.42 µM
IC50 (GluA2/3; [2]): 3.39 µM
A/AI (GluA2/3): 4.79±0.20
t deact (GluA2/3): 5.7 ± 0.4 ms
t des (GluA2/3): 1.3 ± 0.2 ms
